In article PMC9606921, “Phytochemical Investigation and Biological Studies on Selected Searsia Species” (Plants, 2022):
Several values for one entry are separate records, joined by “and”; a condition that tells them apart may be missing. Equal values may be shown once.

Experiments:
[1] = Ferric ion reducing antioxidant power (FRAP) assay; conditions: means ± SDs; ascorbic acid equivalents; read at 593 nm
Protocol: The FRAP values were generated by comparing the absorbance changes in the test mixtures with those obtained from increasing concentrations of Fe^3+ and were expressed as µM AAE/g of the samples (Figure 3).
Preparation of the FRAP reagent in a 50 mL conical flask was composed of 30 mL Acetate buffer (300 mM, pH 3.6; 1.627 g Sodium acetate + 16 mL Glacial acetic acid and made up to 1 L with distilled water) + 3 mL TPTZ 10 mM solution (0.0093 g TPTZ and 3 mL of 40 mM HCl in 15 mL flask) + 3 mL FeCl3 solution (0.054 g FeCl3.6H2O and 10 mL distilled water) and 6.6 mL of distilled water. A control solution was prepared by dissolving 0.00352 g of Ascorbic acid in 50 mL, diluted to the mark with distilled water. A standard curve was prepared as per the method described by Benzie and Strain, 1996. L-Ascorbic acid (Sigma Aldrich, Cape Town, South Africa) was used as a standard, with concentrations varying between 0 and 1000 µM. Dilutions were made for the extracts that were highly concentrated, and dilution factors were noted and considered in calculations for the relevant extracts. In a 96-well clear microplate, 10 µL of the stock solutions of the extracts (hexane, dichloromethane, ethyl acetate, methanol, and butanol) of three plants were mixed with a 300 µL FRAP reagent. The plate was read at a wavelength of 593 nm in a multiplate reader. […]

[2] = target: T1, α-amylase (procaine pancreas) (Sus scrofa, UniProt P00690); assay: Alpha amylase inhibitory assay; type: biochemical; conditions: for IC50: concentrations 125.0-1.95 µg/mL, means ± SDs; for activity in screening against alpha amylase: isolated compounds tested at 125.0 µg/mL
T1 construct: purchased Sigma-Aldrich, South Africa; host or cells: pancreas
T1 sequence (P00690 16-511): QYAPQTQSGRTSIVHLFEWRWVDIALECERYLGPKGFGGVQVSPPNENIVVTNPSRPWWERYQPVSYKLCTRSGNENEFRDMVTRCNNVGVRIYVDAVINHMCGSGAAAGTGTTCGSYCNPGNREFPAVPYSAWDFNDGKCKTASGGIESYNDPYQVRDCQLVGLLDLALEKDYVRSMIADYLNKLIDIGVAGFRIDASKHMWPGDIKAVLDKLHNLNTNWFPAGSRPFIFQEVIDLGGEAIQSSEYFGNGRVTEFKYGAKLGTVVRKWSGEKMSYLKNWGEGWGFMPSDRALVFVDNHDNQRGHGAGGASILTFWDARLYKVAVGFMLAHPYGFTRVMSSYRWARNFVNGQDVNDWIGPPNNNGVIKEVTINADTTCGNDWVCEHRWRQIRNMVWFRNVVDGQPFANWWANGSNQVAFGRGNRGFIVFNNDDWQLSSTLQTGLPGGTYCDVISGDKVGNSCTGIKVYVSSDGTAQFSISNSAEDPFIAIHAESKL
Protocol: (§1) The extracts of Searsia species were screened to determine their inhibition activities with respect to enzymes relevant to the management of diabetes. The extracts were tested at 2.0 mg/mL.
(§2) The isolated compounds from the three plants were tested against alpha glucosidase and alpha amylase at 125.0 µg/mL to determine their inhibitory activities.
(§3) Standards (purity > 99.0%) for antioxidants, Trolox (6-hydroxyl-2,5,7,8-tetramethylchroman-2-carboxylic acid; Saarchem, Mumbai, India), and other reagents, including ABTS (2,2′-azino-bis (3-ethylbenzo thiazoline-6-sulfonic acid) diammonium salt (Sigma), potassium-peroxodisulphate (Merck), Ethanol (Saarchem), fluorescein sodium salt (Sigma), AAPH (2,2′-azobis (2-methylpropionamidine) dihydrochloride (Aldrich), Sodium dihydrogen orthophosphate dihydrate ([…], Merck), PCA (perchloric acid, Saarchem), TPTZ (2,4,6-tri[2-pyridyl]-s-triazine), iron (III) chloride hexahydrate, and copper sulphate, were purchased from Sigma-Aldrich, Inc. (St. Louis, MO, USA). L-Ascorbic acid was procured from Sigma Aldrich, Cape Town, South Africa. Antioxidant assays, including FRAP and TEAC assays, were performed using a Multiskan spectrum plate reader, while an automated ORAC assay was performed with a Floroskan spectrum plate reader. For the enzyme inhibition studies, α-glucosidase (Saccharomyces cerevisiae), α-amylase ([…]) and 3, 5, di-nitro salicylic acid (DNS), p-nitro-phenyl-α-D-glucopyranoside (p-NPG), sodium carbonate (Na2CO3), soluble starch, sodium dihydrogen phosphate, and disodium hydrogen phosphate were purchased from Sigma-Aldrich, South Africa.
The alpha amylase inhibitory assays of the extracts were carried out according to the standard method, with minor modifications. In a 96-well plate, the reaction mixture, containing 50 μL phosphate buffer (100 mM, pH = 6.8), 10 μL alpha amylase (2 U/mL), and 20 μL of plant extracts at 2.0 mg/mL, was preincubated at 37°C for 20 min. Then, 20 μL of 1% soluble starch (100 mM phosphate buffer pH 6.8) was added as a substrate and incubated further at 37 °C for 30 min; 100 μL of the DNS colour reagent was then added and boiled for 10 min. The absorbance of the resulting mixture was measured at 540 nm using a multiplate reader. […] The extracts or isolated compounds were measured in triplicate. The results were reported as half-maximal inhibitory (IC50) concentrations in μM. The results for both alpha amylase and alpha glucosidase were calculated using equation 1.

[3] = target: T2, α-glucosidase (Saccharomyces cerevisiae) (Saccharomyces cerevisiae, UniProt P53341); assay: Alpha glucosidase inhibitory activity; type: biochemical; conditions: for IC50: IC50 on alpha glucosidase, concentrations 125.0-1.95 µg/mL, means ± SDs; for activity in screening against alpha glucosidase: isolated compounds tested at 125.0 µg/mL
T2 construct: purchased Sigma-Aldrich, South Africa
Protocol: as §1, §2, §3
The alpha glucosidase inhibitory activities of the extracts were determined according to the standard method, with minor modifications. In a 96-well plate, a reaction mixture containing 50 μL phosphate buffer (100 mM, pH = 6.8), 10 μL alpha glucosidase (1 U/mL), and 20 μL of extract at 2.0 mg/mL was pre-incubated at 37 °C for 15 min. Then, 20 μL P-NPG (5 mM) was added as a substrate and incubated further at 37 °C for 20 min. The reaction was stopped by adding 50 μL Na2CO3 (0.1 M). The absorbance of the released p-nitrophenol was measured at 405 nm using a Multiplate Reader. The results were reported as half-maximal inhibitory (IC50) concentrations in μM. […] Each extract was tested in triplicate. (1) Inhibitory activity (%)=1 − As/Ac×100 where As is the absorbance in the presence of the test substance and Ac is the absorbance of the control.

[4] = Oxygen radical absorbance capacity (ORAC) assay; conditions: means ± SDs; Trolox equivalents per g of plant extract
Protocol: ORAC was determined according to a previously described method [46], with some modifications [47]. Fluorescein was used as the fluorescent probe. The loss of fluorescence of fluorescein was an indication of the extent of oxidation through reaction with peroxyl or hydroxyl radicals. The protective effect of an antioxidant was measured by assessing the fluorescence area under the curve plot relative to that of a blank in which no antioxidant was present. The ORAC value was calculated by dividing the area under the sample curve by the area under the Trolox curve, with both areas being corrected by subtracting the area under the blank curve.

[5] = Trolox equivalent antioxidant capacity (ABTS/TEAC) assay; conditions: means ± SDs; ABTS, 734 nm, 30 min
Protocol: The antioxidant power of the extracts was examined using the ABTS radical decolorization assay, which measures the relative antioxidant ability to scavenge the radical ABTS^+ (2.2′-azinobis (3-ethylbenzothiazoline-6-sulfonic acid)), a blue-green chromophore with maximum absorption at 734 nm that decreases in its intensity in the presence of antioxidants.
The ABTS mix solution was diluted with ethanol to read a start-up absorbance of approximately 2.0 (±0.1). The test extracts were prepared by dissolving 1 mg of an extract in 1 mL of methanol, allowed to react with 300 µL ABTS solution in the dark at room temperature for 30 min. The absorbance was measured at 734 nm at 25 °C in a multiplate reader. The results were expressed as µM Trolox equivalents per milligram dry weight (µM TE/g) of the test samples.

T2 sequence (P53341 whole entry): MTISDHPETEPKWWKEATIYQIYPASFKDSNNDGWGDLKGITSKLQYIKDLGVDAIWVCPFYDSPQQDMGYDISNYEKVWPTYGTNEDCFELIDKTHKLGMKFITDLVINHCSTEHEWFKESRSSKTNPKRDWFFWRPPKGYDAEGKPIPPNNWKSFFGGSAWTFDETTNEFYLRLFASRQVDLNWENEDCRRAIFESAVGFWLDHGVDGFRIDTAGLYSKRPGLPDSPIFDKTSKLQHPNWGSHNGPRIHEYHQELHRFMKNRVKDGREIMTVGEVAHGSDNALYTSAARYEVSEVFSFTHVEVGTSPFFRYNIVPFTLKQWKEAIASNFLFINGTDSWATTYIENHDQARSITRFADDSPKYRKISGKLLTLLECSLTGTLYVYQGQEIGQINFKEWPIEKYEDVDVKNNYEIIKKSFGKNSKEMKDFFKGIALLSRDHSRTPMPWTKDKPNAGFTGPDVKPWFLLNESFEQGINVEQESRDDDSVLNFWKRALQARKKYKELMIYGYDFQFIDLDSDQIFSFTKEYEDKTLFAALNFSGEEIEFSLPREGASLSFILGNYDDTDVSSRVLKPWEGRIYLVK

## O=C1O[C@H]([C@@H](O)CO)C(O)=C1O [Ascorbic acid, L-Ascorbic acid]
[1]
  FRAP: 390.12 ± 09.12 µM AAE/g

## CC1(C)C=C2[C@H]3CC[C@@H]4[C@@]5(C)CCC(=O)C(C)(C)[C@@H]5CC[C@@]4(C)[C@]3(C)CC[C@@]2(C(=O)O)CC1 [Compound C1, moronic acid]
[2]
  IC50: 44.2 µM
  activity in screening against alpha amylase: showed activity
[3]
  IC50: 23.4 µM and 23.2 µM
  activity in screening against alpha glucosidase: showed activity

## O=c1cc(-c2ccc(O)c(-c3c(O)cc(O)c4c(=O)cc(-c5ccc(O)cc5)oc34)c2)oc2cc(O)cc(O)c12 [Compound C7, amentoflavone]
[2]
  IC50: 36.8 µM
  activity in screening against alpha amylase: showed activity
[3]
  IC50: 10.3 µM
  activity in screening against alpha glucosidase: showed activity

## Cc1c(C)c2c(c(C)c1O)CCC(C)(C(=O)O)O2 (centres unmarked) [Trolox, 6-hydroxyl-2,5,7,8-tetramethylchroman-2-carboxylic acid]
[4]
  ORAC: 14.2 ± 04.01 µM TE/g
[5]
  TEAC: 205.01 ± 05.03 µM TE/g
